According to the NIST ThermoML archive (doi:10.1021/acs.jced.9b00026):

Legend:
[1] = wn = mass fraction of the nth substance listed; conditions: for surface tension liquid-gas: Ring tensiometer; for mass density: 101 kPa, Liquid, Vibrating tube method
[2] = Ring tensiometer

NC(=O)CC[C@H](N)C(=O)O [L-glutamine] + O
[1]
Conditions | mass density, w1 = 0.005 [kg/m3] | surface tension liquid-gas, w1 = 0.00499 [mN/m] | surface tension liquid-gas, w1 = 0.00998 [mN/m] | surface tension liquid-gas, w1 = 0.01501 [mN/m] | surface tension liquid-gas, w1 = 0.02001 [mN/m] | surface tension liquid-gas, w1 = 0.02499 [mN/m] | surface tension liquid-gas, w1 = 0.02999 [mN/m]
298 K | 998.8 | 71.43 | 71.49 | 71.53 | 71.55 | 71.55 | 71.55
308 K | – | 69.29 | 69.65 | 69.78 | 69.89 | 69.96 | 70.02
318 K | – | 68.34 | 68.42 | 68.59 | 68.58 | 68.64 | 68.67
328 K | – | 66.55 | 66.69 | 66.76 | 66.85 | 66.98 | 67.04

O=C(O)CC(O)C(=O)O (stereo not drawn) [hydroxybutanedioic acid] + O
[1]
Conditions | mass density, w1 = 0.01 [kg/m3] | surface tension liquid-gas, w1 = 0.01049 [mN/m] | surface tension liquid-gas, w1 = 0.02026 [mN/m] | surface tension liquid-gas, w1 = 0.03004 [mN/m] | surface tension liquid-gas, w1 = 0.04002 [mN/m] | surface tension liquid-gas, w1 = 0.06001 [mN/m] | surface tension liquid-gas, w1 = 0.07998 [mN/m] | surface tension liquid-gas, w1 = 0.1 [mN/m]
298 K | 1000.8 | 71.39 | 71.2 | 71.09 | 70.92 | 70.61 | 70.44 | 70.2
308 K | – | 69.64 | 69.49 | 69.42 | 69.28 | 69.18 | 68.83 | 68.62
318 K | – | 68.16 | 68.16 | 68.11 | 67.78 | 67.63 | 67.49 | 67.25
328 K | – | 66.67 | 66.54 | 66.48 | 66.43 | 66.24 | 66.05 | 65.89

O [water] + CSCC[C@H](N)C(=O)O
[1], w2 = 0
Conditions | surface tension liquid-gas [mN/m]
298 K | 71.52
308 K | 69.94
318 K | 68.54
328 K | 66.78

O [water] + CCO
[1], w2 = 0
Conditions | surface tension liquid-gas [mN/m]
298 K | 72.04
313 K | 69.89

O [water] + NC(=O)CC[C@H](N)C(=O)O
[1], w2 = 0
Conditions | surface tension liquid-gas [mN/m]
298 K | 71.06
308 K | 69.1
318 K | 68.31
328 K | 66.41

CCO [ethanol] + O
surface tension liquid-gas [mN/m], [1]
Conditions | w1 = 0.05 | w1 = 0.1 | w1 = 0.15 | w1 = 0.2
298 K | 55.14 | 47.34 | 41.96 | 38.2
313 K | 53.13 | 45.92 | 40.41 | 36.71

C[C@H](O)C(=O)O [(S)-2-hydroxypropanoic acid] + O
[1]
Conditions | mass density, w1 = 0.01 [kg/m3] | surface tension liquid-gas, w1 = 0.002 [mN/m] | surface tension liquid-gas, w1 = 0.004 [mN/m] | surface tension liquid-gas, w1 = 0.006 [mN/m] | surface tension liquid-gas, w1 = 0.008 [mN/m]
298 K | 999.5 | 70.66 | 69.69 | 68.73 | 67.69
308 K | – | 69.32 | 68.36 | 67.63 | 67.06
318 K | – | 68.04 | 67.36 | 66.46 | 65.96
328 K | – | 67.07 | 66.17 | 65.34 | 64.92

O [water] + O=C(O)CC(O)C(=O)O
[1], w2 = 0
Conditions | surface tension liquid-gas [mN/m]
298 K | 71.52
308 K | 69.73
318 K | 68.3
328 K | 66.81

O [water] + C[C@H](O)C(=O)O
[1], w2 = 0
Conditions | surface tension liquid-gas [mN/m]
298 K | 71.53
308 K | 70.02
318 K | 68.48
328 K | 67.18

CC(C)[C@H](N)C(=O)O [L-valine] + O
[1]
Conditions | mass density, w1 = 0.005 [kg/m3] | surface tension liquid-gas, w1 = 0.005 [mN/m] | surface tension liquid-gas, w1 = 0.01 [mN/m] | surface tension liquid-gas, w1 = 0.02 [mN/m] | surface tension liquid-gas, w1 = 0.03 [mN/m] | surface tension liquid-gas, w1 = 0.04 [mN/m]
298 K | 998.1 | 70.53 | 70.5 | 69.48 | 68.4 | 67.12
308 K | – | 69.19 | 68.93 | 68.17 | 67.08 | 66.41
318 K | – | 67.61 | 67.61 | 66.54 | 65.36 | 64.53
328 K | – | 66.3 | 66.02 | 65.14 | 63.84 | 63.26

N[C@@H](CO)C(=O)O [L-serine] + O
[1]
Conditions | mass density, w1 = 0.005 [kg/m3] | surface tension liquid-gas, w1 = 0.00504 [mN/m] | surface tension liquid-gas, w1 = 0.01 [mN/m] | surface tension liquid-gas, w1 = 0.02001 [mN/m] | surface tension liquid-gas, w1 = 0.03 [mN/m] | surface tension liquid-gas, w1 = 0.03999 [mN/m] | surface tension liquid-gas, w1 = 0.05 [mN/m]
298 K | 999.1 | 71.53 | 71.64 | 71.7 | 71.85 | 71.98 | 72.12
308 K | – | 69.85 | 69.98 | 70.15 | 70.31 | 70.44 | 70.56
318 K | – | 68.58 | 68.6 | 68.84 | 68.87 | 69.09 | 69.23
328 K | – | 66.76 | 66.84 | 67.01 | 67.19 | 67.28 | 67.5

CSCC[C@H](N)C(=O)O [L-methionine] + O
[1]
Conditions | mass density, w1 = 0.005 [kg/m3] | surface tension liquid-gas, w1 = 0.005 [mN/m] | surface tension liquid-gas, w1 = 0.01 [mN/m] | surface tension liquid-gas, w1 = 0.02 [mN/m] | surface tension liquid-gas, w1 = 0.03 [mN/m] | surface tension liquid-gas, w1 = 0.04001 [mN/m]
298 K | 998.5 | 71.39 | 71.3 | 71.02 | 70.77 | 70.61
308 K | – | 69.89 | 69.69 | 69.45 | 69.15 | 68.9
318 K | – | 68.4 | 68.3 | 68.06 | 67.74 | 67.28
328 K | – | 66.65 | 66.56 | 66.32 | 65.78 | 64.97

O [water]
[2]
Conditions | surface tension liquid-gas
298 K | 71.52 mN/m [middle of 7 runs]
308 K | 69.73 mN/m [middle of 7 runs]
313 K | 69.89 mN/m
318 K | 68.48 mN/m [middle of 7 runs]
328 K | 66.76 mN/m [middle of 7 runs]

O=C(O)[C@@H]1CCCN1 [L-proline] + O
[1]
Conditions | mass density, w1 = 0.02 [kg/m3] | surface tension liquid-gas, w1 = 0.01996 [mN/m] | surface tension liquid-gas, w1 = 0.03996 [mN/m] | surface tension liquid-gas, w1 = 0.05995 [mN/m] | surface tension liquid-gas, w1 = 0.07996 [mN/m] | surface tension liquid-gas, w1 = 0.09995 [mN/m]
298 K | 1002.6 | 71.56 | 71.56 | 71.55 | 71.5 | 71.45
308 K | – | 70.14 | 70.13 | 70.12 | 70.05 | 69.95
318 K | – | 68.51 | 68.51 | 68.46 | 68.44 | 68.4
328 K | – | 66.8 | 66.79 | 66.75 | 66.67 | 66.46

O [water] + N[C@@H](CO)C(=O)O
[1], w2 = 0
Conditions | surface tension liquid-gas [mN/m]
298 K | 71.46
308 K | 69.71
318 K | 68.51
328 K | 66.66

O [water] + O=C(O)[C@@H]1CCCN1
[1], w2 = 0
Conditions | surface tension liquid-gas [mN/m]
298 K | 71.61
308 K | 70.1
318 K | 68.56
328 K | 66.76
